In ChEMBL document CHEMBL3112562, “Structure-activity relationships of N-substituted 4-(trifluoromethoxy)benzamidines with affinity for GluN2B-containing NMDA receptors” (Bioorg Med Chem Lett, 2014):

Target: Glutamate receptor ionotropic, NMDA 2B (Rattus norvegicus, UniProt Q00960)
Experiment: Displacement of [3H]ifenprodil from Wistar rat GluN2B receptor after 2 hrs by liquid scintillation spectrometry

Glutamate receptor ionotropic, NMDA 2B, sequence (Q00960 whole entry): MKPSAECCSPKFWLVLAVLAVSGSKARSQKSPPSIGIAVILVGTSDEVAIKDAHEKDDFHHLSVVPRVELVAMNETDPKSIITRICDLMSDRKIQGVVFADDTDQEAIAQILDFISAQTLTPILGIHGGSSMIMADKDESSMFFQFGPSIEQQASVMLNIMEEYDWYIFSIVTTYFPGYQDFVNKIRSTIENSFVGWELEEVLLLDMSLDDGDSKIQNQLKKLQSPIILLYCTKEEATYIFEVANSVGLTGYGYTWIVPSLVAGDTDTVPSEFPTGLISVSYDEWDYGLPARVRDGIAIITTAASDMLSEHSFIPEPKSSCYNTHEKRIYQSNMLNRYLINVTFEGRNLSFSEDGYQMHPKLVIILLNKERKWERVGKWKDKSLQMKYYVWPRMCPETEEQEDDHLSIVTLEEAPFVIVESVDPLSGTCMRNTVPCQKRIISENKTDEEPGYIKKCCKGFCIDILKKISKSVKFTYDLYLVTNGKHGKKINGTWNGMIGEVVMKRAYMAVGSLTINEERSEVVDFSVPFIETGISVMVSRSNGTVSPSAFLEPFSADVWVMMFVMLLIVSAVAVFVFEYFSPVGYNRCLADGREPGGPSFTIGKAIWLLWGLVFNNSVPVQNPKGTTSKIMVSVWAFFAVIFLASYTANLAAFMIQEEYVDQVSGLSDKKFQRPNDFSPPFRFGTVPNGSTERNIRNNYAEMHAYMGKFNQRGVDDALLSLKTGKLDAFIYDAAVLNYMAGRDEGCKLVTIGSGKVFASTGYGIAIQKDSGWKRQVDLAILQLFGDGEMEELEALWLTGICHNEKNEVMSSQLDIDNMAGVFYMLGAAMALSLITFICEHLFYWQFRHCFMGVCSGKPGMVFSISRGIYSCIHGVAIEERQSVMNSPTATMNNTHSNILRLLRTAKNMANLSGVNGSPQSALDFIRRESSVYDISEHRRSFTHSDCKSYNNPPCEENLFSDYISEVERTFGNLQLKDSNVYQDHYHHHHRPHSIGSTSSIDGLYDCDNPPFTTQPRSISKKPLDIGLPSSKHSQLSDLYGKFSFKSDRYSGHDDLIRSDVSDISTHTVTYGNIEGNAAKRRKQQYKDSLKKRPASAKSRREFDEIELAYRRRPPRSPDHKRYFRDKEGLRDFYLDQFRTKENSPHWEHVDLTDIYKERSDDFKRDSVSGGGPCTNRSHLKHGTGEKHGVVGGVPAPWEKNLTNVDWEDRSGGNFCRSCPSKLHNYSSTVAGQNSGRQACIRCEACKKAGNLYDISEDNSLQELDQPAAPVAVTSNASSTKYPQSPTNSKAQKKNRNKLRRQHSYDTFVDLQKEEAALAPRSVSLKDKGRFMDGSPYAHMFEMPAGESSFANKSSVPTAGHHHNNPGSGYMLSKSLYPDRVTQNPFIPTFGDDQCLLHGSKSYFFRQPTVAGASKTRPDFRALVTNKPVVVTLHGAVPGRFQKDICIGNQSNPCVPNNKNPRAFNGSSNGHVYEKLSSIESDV

Ki | SMILES
8.25 nM | N=C(NCc1ccc(F)c(F)c1)c1ccc(OC(F)(F)F)cc1
26.3 nM | N=C(NCc1ccc2c(c1)OCO2)c1ccc(OC(F)(F)F)cc1
4.29 nM | COc1ccc(OC)c(CNC(=N)c2ccc(OC(F)(F)F)cc2)c1
1140 nM | COc1cc(CN=C(N)c2ccc(OC(F)(F)F)cc2)cc(OC)c1OC
150 nM | N=C(NCC12C3C4C5C3C1C5C42)c1ccc(OC(F)(F)F)cc1 (stereo not drawn)
2.86 nM | N=C(NCc1cccc(F)c1)c1ccc(OC(F)(F)F)cc1
2.09 nM | COc1ccccc1C/N=C(\N)c1ccc(OC(F)(F)F)cc1
8.09 nM | NC(=NCc1ccccc1C(F)(F)F)c1ccc(OC(F)(F)F)cc1
4810 nM | NC(=NCC12CC3CC(CC(C3)C1)C2)c1ccc(OC(F)(F)F)cc1
3.58 nM | NC(=NCc1cc(F)cc(F)c1)c1ccc(OC(F)(F)F)cc1
303 nM | COc1cccc(CNC(=N)c2ccc(OC(F)(F)F)cc2)c1OC
22.9 nM | COc1cc(CNC(=N)c2ccc(OC(F)(F)F)cc2)cc(OC)c1
16.2 nM | COc1ccc(CNC(=N)c2ccc(OC(F)(F)F)cc2)c(OC)c1
